# Assay results: BindingDB's records for doi:10.1021/jm100555f (Harvard Medical School, 2010)
# Assay: Inhibition of Bcr-Abl in mouse BA/F3 cells
row,EC50 [µM],SMILES
1,> 10,"CN(c1ccc(OC(F)(F)F)cc1)c1cc(NCCN2CCOCC2)ncn1 [N4-methyl-N6-(2-morpholinoethyl)-N4-(4-(trifluoromethoxy)phenyl)pyrimidine-4,6-diamine]"
2,0.09,FC(F)(F)Oc1ccc(Nc2cc(-c3cn[nH]c3)ncn2)cc1 [6-(1H-pyrazol-4-yl)-N-(4-(trifluoromethoxy)phenyl)pyrimidin-4-amine]
3,6.89,"Cn1ccc2c(Nc3ccc(OC(F)(F)F)cc3)ncnc21 [7-methyl-N-(4-(trifluoromethoxy)phenyl)-7H-pyrrolo[2,3-d]pyrimidin-4-amine]"
4,> 10,"COc1ccc(Nc2cc(NCCN3CCOCC3)ncn2)cc1 [N4-(4-methoxyphenyl)-N6-(2-morpholinoethyl)pyrimidine-4,6-diamine]"
5,> 10,FC(F)(F)Oc1ccc(-c2cc(NCCN3CCOCC3)ncn2)cc1 [N-(2-morpholinoethyl)-6-(4-(trifluoromethoxy)phenyl)pyrimidin-4-amine]
6,1.8,FC(F)(F)Oc1ccc(Nc2cc(N3CCOCC3)ncn2)cc1 [6-morpholino-N-(4-(trifluoromethoxy)phenyl)pyrimidin-4-amine]
7,> 10,"FC(F)(F)Oc1ccc(CNc2cc(NCCN3CCOCC3)ncn2)cc1 [N4-(2-morpholinoethyl)-N6-(4-(trifluoromethoxy)benzyl)pyrimidine-4,6-diamine]"
8,0.24,O=C(c1cccc(-c2cc(Nc3ccc(OC(F)(F)F)cc3)ncn2)c1)N1CCOCC1 [morpholino(3-(6-(4-(trifluoromethoxy)phenylamino)pyrimidin-4-yl)phenyl)methanone]
9,5.6,"COC(=O)c1cc2c(Nc3ccc(OC(F)(F)F)cc3)ncnc2s1 [methyl 4-(4-(trifluoromethoxy)phenylamino)thieno[2,3-d]pyrimidine-6-carboxylateMethyl 4-(4-(Trifluoromethoxy)-phenylamino)thieno[2,3-d]pyrimidine-6-carboxylate]"
10,0.15,"Cc1nn(C)c(C)c1-c1cc(Nc2ccc(OC(F)(F)F)cc2)ncn1 [N-(4-(trifluoromethoxy)phenyl)-6-(1,3,5-trimethyl-1H-pyrazol-4-yl)pyrimidin-4-amine]"
11,0.34,CNC(=O)c1cccc(-c2cc(Nc3ccc(OC(F)(F)F)cc3)ncn2)c1 [N-methyl-3-(6-(4-(trifluoromethoxy)phenylamino)pyrimidin-4-yl)benzamide]
12,> 10,"FC(F)(F)Oc1ccc(Nc2ncnc3[nH]ccc23)cc1 [N-(4-(Trifluoromethoxy)phenyl)-7H-pyrrolo[2,3-d]pyrimidin-4-amine]"
13,1.3,"FC(F)(F)Oc1ccc(Nc2ncnc3n[nH]cc23)cc1 [N-(4-(trifluoromethoxy)phenyl)-1H-pyrazolo[3,4-d]pyrimidin-4-amine]"
14,0.33,Nc1cccc(-c2cc(Nc3ccc(OC(F)(F)F)cc3)ncn2)c1 [6-(3-aminophenyl)-N-(4-(trifluoromethoxy)phenyl)pyrimidin-4-amine]
15,0.29,FC(F)(F)Oc1ccc(Nc2cc(-c3ccc4[nH]ccc4c3)ncn2)cc1 [6-(1H-indol-5-yl)-N-(4-(trifluoromethoxy)phenyl)pyrimidin-4-amine]
16,> 10,"FC(F)(F)Oc1ccc(Nc2ncnc(NCCN3CCOCC3)n2)cc1 [N2-(2-morpholinoethyl)-N4-(4-(trifluoromethoxy)phenyl)-1,3,5-triazine-2,4-diamine]"
17,0.04,CS(=O)(=O)Nc1ccc(-c2cc(Nc3ccc(OC(F)(F)F)cc3)ncn2)cc1 [N-(4-(6-(4-(trifluoromethoxy)phenylamino)pyrimidin-4-yl)phenyl)methanesulfonamide]
18,> 10,Fc1ccc(Nc2cc(-c3ccncc3)ncn2)cc1 [N-(4-fluorophenyl)-6-(pyridin-4-yl)pyrimidin-4-amine]
19,> 10,CN(c1ccc(OC(F)(F)F)cc1)c1cc(-c2ccncc2)ncn1 [N-methyl-6-(pyridin-4-yl)-N-(4-(trifluoromethoxy)phenyl)pyrimidin-4-amine]
20,1.96,"O=C(c1cc2c(Nc3ccc(OC(F)(F)F)cc3)ncnc2s1)N1CCC(O)CC1 [(4-hydroxypiperidin-1-yl)(4-(4-(trifluoromethoxy)phenylamino)thieno[2,3-d]pyrimidin-6-yl)methanone]"
21,1.27,FC(F)(F)c1ccc(Nc2cc(-c3ccncc3)ncn2)cc1 [6-(pyridin-4-yl)-N-(4-(trifluoromethyl)phenyl)pyrimidin-4-amine]

# Further lines, the compound ahead of its results:
row,SMILES,EC50 [µM]
1,"CC(C)(C)n1ncc2c(Nc3ccc(OC(F)(F)F)cc3)ncnc21 [1-tert-butyl-N-(4-(trifluoromethoxy)phenyl)-1H-pyrazolo[3,4-d]pyrimidin-4-amine]",0.16
2,"Cc1nc(C)c(Cn2ncc3c(Nc4ccc(OC(F)(F)F)cc4)ncnc32)s1 [1-((2,4-dimethylthiazol-5-yl)methyl)-N-(4-(trifluoromethoxy)phenyl)-1H-pyrazolo[3,4-d]pyrimidin-4-amine]",6.92
3,"NC(=O)Cn1ncc2c(Nc3ccc(OC(F)(F)F)cc3)ncnc21 [2-(4-(4-(trifluoromethoxy)phenylamino)-1H-pyrazolo[3,4-d]pyrimidin-1-yl)acetamide]",0.35
4,"CCn1ncc2c(Nc3ccc(OC(F)(F)F)cc3)ncnc21 [1-ethyl-N-(4-(trifluoromethoxy)phenyl)-1H-pyrazolo[3,4-d]pyrimidin-4-amine]",0.3
5,FC(F)(F)Oc1ccc(Nc2cc(-c3cccc4[nH]ccc34)ncn2)cc1 [6-(1H-indol-4-yl)-N-(4-(trifluoromethoxy)phenyl)pyrimidin-4-amine],0.14
6,CC(C)Cn1cc(-c2cc(Nc3ccc(OC(F)(F)F)cc3)ncn2)cn1 [6-(1-isobutyl-1H-pyrazol-4-yl)-N-(4-(trifluoromethoxy)phenyl)pyrimidin-4-amine],0.36
7,"NC(=O)Cn1cc2c(Nc3ccc(OC(F)(F)F)cc3)ncnc2n1 [2-(4-(4-(trifluoromethoxy)phenylamino)-2H-pyrazolo[3,4-d]pyrimidin-2-yl)acetamide]",4.34
8,"O=C(O)c1cc2c(Nc3ccc(OC(F)(F)F)cc3)ncnc2s1 [4-(4-(trifluoromethoxy)phenylamino)thieno[2,3-d]pyrimidine-6-carboxylic acid]",> 10
9,NC(=O)c1ccc(-c2cc(Nc3ccc(OC(F)(F)F)cc3)ncn2)cc1 [4-(6-(4-(trifluoromethoxy)phenylamino)pyrimidin-4-yl)benzamide],0.48
10,"CCCn1cc2c(Nc3ccc(OC(F)(F)F)cc3)ncnc2n1 [2-propyl-N-(4-(trifluoromethoxy)phenyl)-2H-pyrazolo[3,4-d]pyrimidin-4-amine]",0.16
11,NS(=O)(=O)c1ccc(-c2cc(Nc3ccc(OC(F)(F)F)cc3)ncn2)cc1 [4-(6-(4-(trifluoromethoxy)phenylamino)pyrimidin-4-yl)benzenesulfonamide],0.12
12,NC(=O)c1cccc(Nc2cc(Nc3ccc(OC(F)(F)F)cc3)ncn2)c1 [3-(6-(4-(trifluoromethoxy)phenylamino)pyrimidin-4-ylamino)benzamide],2.92
13,"FC(F)(F)Oc1ccc(Nc2ncnc3nn(C4CCCCC4)cc23)cc1 [2-cyclohexyl-N-(4-(trifluoromethoxy)phenyl)-2H-pyrazolo[3,4-d]pyrimidin-4-amine]",2.2
14,"CCn1cc2c(Nc3ccc(OC(F)(F)F)cc3)ncnc2n1 [2-ethyl-N-(4-(trifluoromethoxy)phenyl)-2H-pyrazolo[3,4-d]pyrimidin-4-amine]",1.2
15,"FC(F)(F)Oc1ccc(Nc2ncnc3c2cnn3Cc2cccnc2)cc1 [1-(pyridin-3-ylmethyl)-N-(4-(trifluoromethoxy)phenyl)-1H-pyrazolo[3,4-d]pyrimidin-4-amine]",7.15
16,"FC(F)(F)Oc1ccc(Nc2ncnc3nn(Cc4ccccc4)cc23)cc1 [2-benzyl-N-(4-(trifluoromethoxy)phenyl)-2H-pyrazolo[3,4-d]pyrimidin-4-amine]",> 10
